Measured values: US20120195847A1 (Nektar Therapeutics, priority 2008, published 2012)

Columns and labels:
mice [1] = conditions: intrathecally (i.t.); cited from earlier work
[2] = Stability of biphalin during pre-incubation under physiological-like conditions; type: physicochemical; conditions: 72 hour incubation in assay buffer, pH 7.5 at 37° C.
mice [3] = conditions: intracerebroventricular (i.c.v); cited from earlier work
human δ opioid receptor = biological target: T1, human δ opioid receptor (Homo sapiens, UniProt P41143); assay: Radioligand competition binding assay, δ opioid receptor ([3H]DPDPE); conditions: 1 μM; pre-incubated 20 hours
T1 construct: expressed in transfected cells
T1 sequence (P41143 whole entry): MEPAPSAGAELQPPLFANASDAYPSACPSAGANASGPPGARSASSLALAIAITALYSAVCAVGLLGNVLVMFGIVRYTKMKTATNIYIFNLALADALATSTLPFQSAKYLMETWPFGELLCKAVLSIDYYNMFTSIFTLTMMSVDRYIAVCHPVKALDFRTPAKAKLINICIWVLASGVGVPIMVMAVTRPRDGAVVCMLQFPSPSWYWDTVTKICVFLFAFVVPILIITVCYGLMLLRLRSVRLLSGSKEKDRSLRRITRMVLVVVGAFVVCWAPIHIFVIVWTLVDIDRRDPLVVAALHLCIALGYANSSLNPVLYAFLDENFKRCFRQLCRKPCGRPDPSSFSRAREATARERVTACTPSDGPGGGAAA
Method: Competition binding experiments were conducted by incubating membrane protein to equilibrium in triplicate in the presence of a fixed concentration of radioligand and increasing concentrations (0.1 nM to 10 μM) of test compound in 100 μL final volume. The radioligands used were specific for each receptor type, and the assay conditions are described in Table BIP6.3. Following incubations, the membranes were rapidly filtered through GF/B filter plate (presoaked with 0.5% polyethyleneimine), washed four times with cold 50 mM Tris-HCl, pH 7.5, and the bound radioactivity was then measured. Non-specific binding was measured in the presence of excess naloxone (100 μM); this value was subtracted from the total binding to yield the specific binding at each test concentration.
The test compounds were stored under acidic condition to stabilize the PEG conjugation.
Ki (affinity of test compound) was obtained using the Cheng Prusoff correction using experimental Kd (affinity of radioligand) values that were previously determined under these assay conditions.

[4] = Stability of the conjugate during purification; type: physicochemical; conditions: reaction mixture, acidic pH values

Row | Compound | potency compared with morphine, tail flick testing (mice [1]) [fold] | stability following incubation [2] | potency in eliciting antinociception compared with morphine (mice [3]) [fold] | inhibition of specific binding at the highest test concentration (human δ opioid receptor) [%] | stability of the conjugate [4]
1 | C[C@@H](NC(=O)[C@@H](N)Cc1ccc(O)cc1)C(=O)NCC(=O)N[C@@H](Cc1ccccc1)C(=O)NNC(=O)[C@H](Cc1ccccc1)NC(=O)CNC(=O)[C@@H](C)NC(=O)[C@@H](N)Cc1ccc(O)cc1 [Biphalin, Tyr-D-Ala-Gly-Phe-NH-NH-Phe-Gly-D-Ala-Tyr] | 1000 | remained stable | 257 | – | –
2 | Di-mPEG-SBC-30K-biphalin: releasable di-conjugate of biphalin with N-m-PEG-Benzamide-p-Succinimidyl Carbonate (m-PEG-SBC-30K); not purified | – | – | – | ≤ 50 | instability of the conjugate, even at acidic pH values
